Measurements published in patent US20060154970A1, “Alanines compounds, method of preparing them and their use” (priority 2003, published 2006).

Key:
[1] = test system: 3T3-L1 preadipocytes; assay: Insulin-sensitizing activity in 3T3-L1 preadipocyte model, triglyceride accumulation in cells as indication of differentiation; type: cell-based; settings: for The Percentage of Triglyceride Increased in 3T3-L1 Cells / activation at 0.01 µM / activation at 0.1 µM / activation at 1 µM: average data in 3 pores (Rosiglitazone: n = 22, mean ± SE); for insulin-sensitizing activity (in words): summary of table 2; for activation at 0.01 µM / activation at 0.1 µM / activation at 1 µM: Mus musculus, 3T3-L1, read-out: The Percentage of Triglyceride Increased in 3T3-L1 Cells
Experimental: Insulin-sensitizing agents can promote the differentiation of preadipocytes toward adipocytes, thus insulin-sensitizing agents could be identified according to the differentiation of pre-adipocytes. Following the methods reported in the literature [Kletzin B F. Mol. Pharm. 1991, 41, 393], the insulin-sensitizing activities of the compounds of formula (I) of the present invention were evaluated in 3T3-L1 pradipocyte model with triglyceride accumulation in cells as the indication of differentiation.
The 3T3-L1 preadipocytes were incubated in DMEM (Dulbecco's Modified Eagle's Medium) containing 10% NBS (newborn calf serum) and subcultured every 3 days. The calls were transferred to 24-pore plates, and after the pores were filled completely the cells were treated with IBMX (isobutylmethylxanthine) (0.5 mmol/L), DEX (dexamethasone) (1 μmol/L) and insulin (1.0 μmol/L) for 48 h. Different amounts of test compounds were incubated with the cells until the end of the experiment. Cells were collected and the contents of triglyceride and protein therein were determined by colorimetry. Enhancements of triglyceride in cells after drug-administrating were calculated.
The positive control group was rosiglitazone, and the solvent control group was a culturing medium containing 0.1% of DMSO. The enhancement of triglyceride in cells was determined in three different concentrations (0.01, 0.1, 1 μmol/L) of the tested compounds.

Compound | The Percentage of Triglyceride Increased in 3T3-L1 Cells ([1]; concentration 0.01 μmol/L) [%] | The Percentage of Triglyceride Increased in 3T3-L1 Cells ([1]; concentration 0.1 μmol/L) [%] | The Percentage of Triglyceride Increased in 3T3-L1 Cells ([1]; concentration 1 μmol/L) [%] | insulin-sensitizing activity (in words) [1] | activation at 0.01 µM ([1]; concentration 0.01 μmol/L) [%] | activation at 0.1 µM ([1]; concentration 0.1 μmol/L) [%] | activation at 1 µM ([1]; concentration 1 μmol/L) [%] | melting point
Cc1oc(-c2ccccc2)nc1CCOc1ccc(C[C@H](NC(=O)[C@H]2CC[C@H](C(C)C)CC2)C(=O)O)cc1 (relative stereo) [Compound 1, (2S)-2-[N-(trans-4-isopropylcyclohexylcarbonyl)amino]-3-[4-[2-(5-methyl-2-phenyl-4-oxazole)ethoxy]phenyl]propionic acid] | 1.56 | 21.18 | 47.09 | stronger insulin-sensitizing activity |  |  |  | 
Cc1oc(-c2ccccc2)nc1CCOc1ccc(C[C@@H](NC(=O)[C@H]2CC[C@H](C(C)C)CC2)C(=O)O)cc1 [Compound 2, (2R)-2-[N-(trans-4-isopropylcyclohexylcarbonyl)amino]-3-[4-[2-(5-methyl-2-phenyl-4-oxazolyl)ethoxy]phenyl]propionic acid] |  |  |  | stronger insulin-sensitizing activity | 10.7 | 16.5 | 30.7 | 151 to 153 °C (dec.)
CC(C)[C@H]1CC[C@H](C(=O)N[C@@H](Cc2ccc(OCCN(C)c3nc4ccccc4o3)cc2)C(=O)O)CC1 [Compound 3, (2S)-2-[N-(trans-4-isopropylcyclohexylcarbonyl)amino]-3-[4-[2-[N-methyl-N-(2-benzoxazolyl)amino]ethoxy]phenyl]propionic acid] |  |  |  |  | -0.37 | 6.7 | 20 | 179 to 180 °C (dec.)
CC(C)[C@H]1CC[C@H](C(=O)N[C@H](Cc2ccc(OCCN(C)c3nc4ccccc4o3)cc2)C(=O)O)CC1 [Compound 4, (2R)-2-[N-(trans-4-isopropylcyclohexylcarbonyl)amino]-3-[4-[2-[N-methyl-N-(2-benzoxazolyl)amino]ethoxy]phenyl]propionic acid] |  |  |  |  | -4.77 | 5.05 | 11 | 179 to 180 °C
CC(C)[C@H]1CC[C@H](C(=O)N[C@@H](Cc2ccc(OCCn3ccc4ccccc43)cc2)C(=O)O)CC1 [Compound 5, (2S)-2-[N-(trans-4-isopropylcyclohexylcarbonyl)amino]-3-[4-[2-(1-indolyl)ethoxy]phenyl]propionic acid] |  |  |  |  | -1.54 | -4.64 | -6.92 | 
CC(C)[C@H]1CC[C@H](C(=O)N[C@@H](Cc2ccc(OCc3ccc(C(F)(F)F)cc3)cc2)C(=O)O)CC1 [Compound 7, (2S)-2-[N-(trans-4-isopropylcyclohexylcarbonyl)amino]-3-[4-(4-trifluoromethylbenzyloxy)phenyl]propionic acid] |  |  |  |  | 11.8 | 5.8 | 4.68 | 171 to 172 °C
CC(C)[C@H]1CC[C@H](C(=O)N[C@H](Cc2ccc(OCc3ccc(C(F)(F)F)cc3)cc2)C(=O)O)CC1 [Compound 8, (2R)-2-[N-(trans-4-isopropylcyclohexylcarbonyl)amino]-3-[4-(4-trifluoromethylbenzyloxy)phenyl]propionic acid] |  |  |  |  |  |  |  | 171 to 172 °C
CC(C)[C@H]1CC[C@H](C(=O)N[C@@H](Cc2ccc(OCc3ccccc3)cc2)C(=O)O)CC1 [Compound 9, (2S)-2-[N-(trans-4-isopropylcyclohexylcarbonyl)amino]-3-(4-benzyloxyphenyl)propionic acid] |  |  |  |  | 6 | 3.35 | -0.69 | 140 to 142 °C (dec.)
CC(C)[C@H]1CC[C@H](C(=O)N[C@H](Cc2ccc(OCc3ccccc3)cc2)C(=O)O)CC1 [Compound 10, (2R)-2-[N-(trans-4-isopropylcyclohexylcarbonyl)amino]-3-(4-benzyloxyphenyl)propionic acid] |  |  |  |  |  |  |  | 140 to 142 °C (dec.)
CCCCOc1ccc(C[C@H](NC(=O)[C@H]2CC[C@H](C(C)C)CC2)C(=O)O)cc1 [Compound 11, (2S)-2-[N-(trans-4-isopropylcyclohexylcarbonyl)amino]-3-(4-butoxyphenyl)propionic acid] |  |  |  |  | 0 | 0.36 | 2.23 | 
CCCCOc1ccc(C[C@@H](NC(=O)[C@H]2CC[C@H](C(C)C)CC2)C(=O)O)cc1 [Compound 12, (2R)-2-[N-(trans-4-isopropylcyclohexylcarbonyl)amino]-3-(4-butoxyphenyl)propionic acid] |  |  |  |  |  |  |  | 120 to 121 °C
CCOc1ccc(C[C@H](NC(=O)[C@H]2CC[C@H](C(C)C)CC2)C(=O)O)cc1 [Compound 13, (2S)-2-[N-(trans-4-isopropylcyclohexylcarbonyl)amino]-3-(4-ethoxyphenyl)propionic acid] |  |  |  |  | 1.89 | 1.83 | -4.74 | 168 to 170 °C
CCOc1ccc(C[C@@H](NC(=O)[C@H]2CC[C@H](C(C)C)CC2)C(=O)O)cc1 [Compound 14, (2R)-2-[N-(trans-4-isopropylcyclohexylcarbonyl)amino]-3-(4-ethoxyphenyl)propionic acid] |  |  |  |  |  |  |  | 168 to 170 °C
COc1ccc(C[C@H](NC(=O)[C@H]2CC[C@H](C(C)C)CC2)C(=O)O)cc1 [Compound 15, (2S)-2-[N-(trans-4-isopropylcyclohexylcarbonyl)amino]-3-(4-methoxyphenyl)propionic acid] |  |  |  |  | -0.21 | 5.99 | 5.04 | 149 to 151 °C
CC(C)[C@H]1CC[C@H](C(=O)N[C@@H](Cc2ccc(O)cc2)C(=O)O)CC1 [Compound 17, (2S)-2-[N-(trans-4-isopropylcyclohexylcarbonyl)amino]-3-(4-hydroxyphenyl)propionic acid] |  |  |  |  | 0.22 | 10.8 | 0.85 | 156 to 157 °C
CC(C)[C@H]1CC[C@H](C(=O)N[C@H](Cc2ccc(O)cc2)C(=O)O)CC1 [Compound 18, (2R)-2-[N-(trans-4-isopropylcyclohexylcarbonyl)amino]-3-(4-hydroxyphenyl)propionic acid] |  |  |  |  |  |  |  | 156 to 157 °C
CC(C)[C@H]1CC[C@H](C(=O)N[C@@H](Cc2ccc(OCCN(C)c3ccccn3)cc2)C(=O)O)CC1 [Compound 19, (2S)-2-[N-(trans-4-isopropylcyclohexylcarbonyl)amino]-3-[4-[2-[N-methyl-N-(2-pyridyl)amino]ethoxyl]phenyl]propionic acid] |  |  |  |  | -1.46 | -2.24 | -1.62 | 158 to 160 °C
